Measured values taken from US20080015251A1, “Means and method for treating lipotoxicity and other metabolically related phenomena” (Yissum Research Development Co., of The Hebrew University …, priority 2006, published 2008).
“Also recorded” adds a separate entry of the source. Marks after values point to notes of the source that are not given here.

What was measured:
J774.2 macrophages [1] = assay: Cell viability by propidium iodide exclusion (membrane integrity), flow cytometry; type: cell-based, Murine; conditions: for protection against TG-induced lipotoxicity (rate of cell death): AA 0.5 mM, resv 0.2 mM, querc 0.2 mM, lyc 10 AM, carot 10 AM, toc 0.2 mM, LA 0.25 mM, Se 1 AM (FIG. 8A)
Experimental: Murine J774.2 macrophages were cultured in RPMI medium enriched with 10% fetal calf serum, 1% glutamine, and 1% penicillin-streptomycin. […] Prior to experimental procedures, macrophages were seeded on 6-well plates at a concentration of 50,000 cells/ml.
The physiological range of TG in plasma is up to 1.5 mg/ml. […] Other agents, such as antioxidants or cycloheximide (CH), were added as specified in the relevant figure legends.
Cell membrane integrity was detected as previously described. Briefly, cells were stained with 2 Ag/ml propidium iodide (PI) and measured by flow cytometry, (FACS Calibur, Becton Dickinson, Calif.) at the following fluorescence setting: excitation at 488 nm and emission at 575 nm. Data were collected from 10,000 cells.

rat isolated hepatocytes [2] = assay: Nitrite in culture media (Griess reaction); type: cell-based; conditions: for effect on LE inhibition of nitrite levels: 0.1% LE, NAC 3 mmol/L, ascorbate 3 mmol/L, resveratrol 600 μmol/L
Experimental: (§1) Rotenone, S nitroso-N-acetyl-penicillamine (SNAP), buthionine sulfoximine (BSO), anti oxidants, or TNF-α were added to the culture medium in specific experiments. At the end of the experiment, the medium was collected and the cells were harvested for further assays.
Nitrite in culture media was measured by the Griess reaction (21). The values obtained were compared with standards of sodium nitrite dissolved in the cell culture media.

rat isolated hepatocytes [3] = assay: Reduced glutathione (GSH) by HPLC; type: cell-based
Experimental: GSH was measured using HPLC (15). […] Detection was made by an electrochemical detector. The results were adjusted to protein levels of the samples.

J774.2 macrophages [4] = assay: Intracellular ROS, H2DCF-DA fluorescent probe, FACS; type: cell-based, Murine; conditions: for ROS production in TG-treated cells: 0.1% LE 24 h, rotenone 40 AM added 5 min before probe, FCCP 15 min (FIG. 2B)
Experimental: Murine J774.2 macrophages were cultured in RPMI medium enriched with 10% fetal calf serum, 1% glutamine, and 1% penicillin-streptomycin. Cells were maintained in an incubator with temperature (378C) and CO2 (5%) control. Prior to experimental procedures, macrophages were seeded on 6-well plates at a concentration of 50,000 cells/ml.
LE was added to the cell culture at a concentration of 0.1% (w/v) TG (1 mg lipids/ml). The physiological range of TG in plasma is up to 1.5 mg/ml. The cells were incubated with the LE for 12, 24, or 48 h, and then washed twice with phosphate-buffered saline (PBS), and intracellular ROS and cell viability were measured. Other agents, such as antioxidants or cycloheximide (CH), were added as specified in the relevant figure legends.
Intracellular ROS were detected using a H2DCF-DA fluorescent probe. The cells were incubated with 25 AMH2DCF-DA for 30 min at room temperature. The fluorescence was measured in a FACS, with excitation at 488 nm and emission at 530 nm. Data were collected from 10,000 cells.

caspase-3 = assay: Caspase-3 (DEVDase) activity, Ac-DEVD-AMC substrate; type: cell-based, Murine; conditions: pretreatment for 24 h with CH (FIG. 6)
Experimental: For analysis of caspase activity, cells were incubated for 2 h in ice-cold PBS containing 0.5% Triton X-100 and 5 mM dithiothreitol (DTT). The suspension of permeabilized cells was agitated slightly and centrifuged at 14,000 g. The clear supernatant was tested for caspase-3 activity as previously described, using the caspase-3 substrate Ac-DEVD-AMC (Calbiochem, Darmstadt, Germany). Incubation was conducted in 200 Al of reaction mixture containing approximatelyl mg sample protein, in the dark, at 308 C for 4 h (linear phase of the reaction). Caspase-3 activity was expressed as arbitrary fluorescence units (AU) per mg. protein.

eNOS [5] = assay: eNOS mRNA level by RT-PCR; type: cell-based, rat; conditions: 0.1% LE, NAC 3 mmol/L, 48 h
Experimental: (§2) Total RNA was prepared using TriReagent. Analyses of mRNA levels of iNOS, eNOS, and gylceraldehyde-3-phosphate dehydrogenase (GAPDH) were performed using RT-PCR. The synthesis of cDNA was carried out using a Reverse-it (ABgene) first-strand synthesis kit. The reaction was conducted at 40-55° C. for 50 min. Finally, the reaction was terminated by incubation at 70° C. for 15 min. PCR amplification was performed in the Biometra T personal cycler instrument (Biometra). Cycles were performed at 94° C. for 30 s followed by 57° C. for 30 s and 72° C. for 30 s. cDNA was incubating with ReddyMix and gene-specific PCR primers, designed using Primer 3 software (Whitehead Institute for Biomedical Research).
(§3) The primers were synthesized by MBC: eNOS, forward primer, 5′-[…]-3′, and reverse primer, 5′-[…]-3′; INOS, forward primer, 5′[…]-3′, and reverse primer, 5′-[…]-3′. As a loading control, RNA was hybridized with a probe of the housekeeping gene, GAPDH, forward primer, 5′-[…]-3′, and reverse primer, 5′-[…]-3′.
(§4) PCR products were electrophoresed on […] gel containing 5 µL ethidium bromide, and the gel image was quantified using Doc-it gel image analysis program (UVP). The number of cycles for all the genes was selected within the linear part of a standard curve.

iNOS [6] = assay: iNOS mRNA level by RT-PCR; type: cell-based, rat; conditions: 0.1% LE, NAC 3 mmol/L, 48 h
Experimental: as §2, §3, §4

iNOS [7] = assay: iNOS protein expression, Western blot; type: cell-based, rat; conditions: 0.1% LE, NAC 3 mmol/L, 48 h
Experimental: (§5) Cells were scraped and lysed in 750 μΛ of lysis buffer (20 mmol/L Tris, pH 7.8; 0.1% Nonidet P-40; 100 mmol/L NaCl; 50 mmol/L NaF; 10% glycerol, 1 mmol/L sodium orthovanadate). Lysates were centrifuged at 8500×g for 10 min. The supernatant was collected and used for the analysis of eNOS and iNOS.
(§6) Protein concentration was determined by the Bradford method (20) using bovine serum albumin as a standard. Samples were boiled for 5 min with SDS sample buffer; 60 μg of protein per sample was loaded onto a 10% SDS-polyacrylamide gel. Electroblots were blocked in Tris buffer NaCl-Tween (TBST) containing 5% skim milk powder at room temperature. Western blot analysis with a specific antibody against iNOS (Biomol), eNOS, p65, and p-c-Jun antibodies (Santa Cruz Biotechnology) was carried out. The antibodies were diluted in TBST buffer+5% skim milk and left overnight at 4° C. After a TBST washing procedure, the blots were incubated with horseradish-peroxidase labeled anti-rabbit antibody (Pierce) for 1 h at room temperature. The immune reaction was detected by enhanced chemiluminescence. Bands were quantified by scanning densitometry and expressed as arbitrary units.

eNOS [8] = assay: eNOS protein expression, Western blot; type: cell-based, rat; conditions: 0.1% LE, NAC 3 mmol/L, 48 h, data not shown
Experimental: as §5, §6

rat isolated hepatocytes [9] = assay: Intracellular ROS, DCF fluorescence, flow cytometer; type: cell-based
Experimental: as §1, with “Isolated hepatocytes were seeded at 2 […]10^9 cells/L; after 4 h, the culture medium was replaced and cells were incubated for 48 h with 0.01-0.1% LE. Rotenone,” for “Rotenone,”
Cell membrane integrity (15), TG accumulation (22), and intracellular ROS levels (23, 24) were detected by flow cytometer (FACScalibur BD). Hepatocytes were stained with 2 mg/L DNA-interchelating dye propidium iodide, which is excluded by viable cells; with 1 mg/L Nile red, which accumulates in intracellular lipid droplets; or with […] dichlorodihydrofluorescein diacetate (H2DCF-DA), a probe that has high reactivity to hydrogen peroxide, lipid hydroperoxide, and hydroxyl radicals and low reactivity to superoxide anions (23,24). Fluorescence settings were as follows: excitation at 488 nm and emission at 575 nm for propidium iodide and Nile red and 488 nm and recorded at 530 nm for H2DCF-DA. Data were collected from 10,000 cells.

[10] = with or without 0.1% LE and BSO, 48 h (Table 6)
[11] = with or without 0.1% LE and rotenone, 48 h (Table 5)

Compound: O=C(O)CCCCC1CCSS1 (racemic) [racemic lipoic acid, lipoic acid]
- protection against TG-induced lipotoxicity (rate of cell death) (J774.2 macrophages [1]; 0.1% LE): did not have any protective effect or even enhanced the rate of cell death

Compound: CCCCS(=N)(=O)CCC(N)C(=O)O (stereo not drawn) [BSO, buthionine sulfoximine]
- nitrite levels (rat isolated hepatocytes [2]; cells treated with BSO): decreased
- Nitrite (rat isolated hepatocytes [2]; [10]): 2.3 ± 0.3^c μmol/106 cells
- GSH (rat isolated hepatocytes [3]; cells treated with BSO): decreased
- GSH (rat isolated hepatocytes [3]; [10]): 2.2 ± 0.4 nmol/mg protein

Compound: C[C@@H]1C[C@@H]([C@H](O)CC2CC(=O)NC(=O)C2)C(=O)[C@@H](C)C1 [CH, cycloheximide]
- ROS production, CH treatment alone (J774.2 macrophages [4]; CH 0.1 AM (FIG. 6)): decreased ROS production
- caspase-3 activity (caspase-3): increased caspase-3 activity
- effect of protein-synthesis inhibition on TG cell-death effect (J774.2 macrophages [1]; CH 0.1 AM then TG, 48 h (FIG. 6B)): does not prevent the cell-death effect of TG

Compound: N#CC(C#N)=NNc1ccc(OC(F)(F)F)cc1 [FCCP]
- ROS production in TG-treated cells (J774.2 macrophages [4]): decreased cellular ROS production but not as effectively as rotenone

Compound: CC(=O)N[C@@H](CS)C(=O)O [NAC, N-acetyl-L-cysteine]
- TG induced ROS production (J774.2 macrophages [4]; 0.1% LE, NAC 0.5 mM (FIG. 7A)): suppressed
- effect on LE-induced reduction of eNOS mRNA transcription (eNOS [5]): attenuate the LE-induced reduction
- effect on LE-induced reduction of iNOS mRNA transcription (iNOS [6]): attenuate the LE-induced reduction
- effect on LE-induced reduction of iNOS protein levels (iNOS [7]): attenuate the LE-induced reduction
- effect on LE inhibition of nitrite levels (rat isolated hepatocytes [2]): increased nitrite levels compared with controls; also recorded: Inhibition of nitrite production was abolished
- effect on LE-induced reduction of eNOS protein levels (eNOS [8]): attenuate the LE-induced reduction
- protection against TG-induced cell death (J774.2 macrophages [1]; 0.1% LE, NAC 0.5 mM (FIG. 7B)): protected the cells against TG-induced cell death

Compound: CC(=O)N[C@H](C(=O)O)C(C)(C)SN=O [SNAP, S-nitroso-N-acetyl-penicillamine]
- effect on ROS levels (rat isolated hepatocytes [9]; SNAP in culture medium 48 h, presence or absence of LE): had no effect on ROS levels
- ROS (DCF fluorescence) (rat isolated hepatocytes [9]; with or without 0.1% LE and SNAP, 48 h (Table 4)): SNAP 133 AU

Compound: CC(C)(C)OO [TBH, tert-butyl hydroperoxide]
- cell viability after 48 h of exposure (J774.2 macrophages [1]; TBH 12 AM or LE 0.1%, 48 h (FIG. 5)): No loss in viability

Compound: Cc1c(C)c2c(c(C)c1O)CC[C@@](C)(CCC[C@H](C)CCC[C@H](C)CCCC(C)C)O2 [atocopherol, a-tocopherol]
- protection against TG-induced lipotoxicity (rate of cell death) (J774.2 macrophages [1]; 0.1% LE): did not have any protective effect or even enhanced the rate of cell death

Compound: CC1=C(/C=C/C(C)=C/C=C/C(C)=C/C=C/C=C(C)/C=C/C=C(C)/C=C/C2=C(C)CCCC2(C)C)C(C)(C)CCC1 [h-carotene]
- protection against TG-induced lipotoxicity (rate of cell death) (J774.2 macrophages [1]; 0.1% LE): did not have any protective effect or even enhanced the rate of cell death

Compound: CC(C)=CCC/C(C)=C/C=C/C(C)=C/C=C/C(C)=C/C=C/C=C(C)/C=C/C=C(C)/C=C/C=C(\C)CCC=C(C)C [lycopene]
- protection against TG-induced lipotoxicity (rate of cell death) (J774.2 macrophages [1]; 0.1% LE): did not have any protective effect or even enhanced the rate of cell death

Compound: O=c1c(O)c(-c2ccc(O)c(O)c2)oc2cc(O)cc(O)c12 [quercetin]
- protection against TG-induced lipotoxicity (rate of cell death) (J774.2 macrophages [1]; 0.1% LE): did not have any protective effect or even enhanced the rate of cell death

Compound: Oc1ccc(C=Cc2cc(O)cc(O)c2)cc1 [resveratrol]
- effect on LE inhibition of nitrite levels (rat isolated hepatocytes [2]): partially prevented the reduction in nitrite synthesis
- protection against TG-induced lipotoxicity (rate of cell death) (J774.2 macrophages [1]; 0.1% LE): significantly decreased the rate of cell death

Compound: C=C(C)[C@H]1Cc2c(ccc3c2O[C@@H]2COc4cc(OC)c(OC)cc4[C@@H]2C3=O)O1 [rotenone]
- ROS production in TG-treated cells (J774.2 macrophages [4]): significantly decreased ROS production
- intracellular ROS levels (rat isolated hepatocytes [9]; incubation with rotenone): increased intracellular ROS levels
- ROS (DCF fluorescence) (rat isolated hepatocytes [9]; [11]): 530 ± 44^a AU
- Nitrite (rat isolated hepatocytes [2]; [11]): 2.0 ± 0.2^c μmol/106 cells

Compound: TNF-α
- Nitrite (rat isolated hepatocytes [2]; TNF-α (100 mU) 3 h, with or without 48 h preincubation with 0.1% LE): 2.1 ± 0.1 μmol/106 cells
- Nitrite (rat isolated hepatocytes [2]; TNF-α (100 mU) 6 h, with or without 48 h preincubation with 0.1% LE): 2.1 ± 0.2 μmol/106 cells
- Nitrite (rat isolated hepatocytes [2]; TNF-α (100 mU) 9 h, with or without 48 h preincubation with 0.1% LE): 4.3 ± 0.2 μmol/106 cells
- Nitrite (rat isolated hepatocytes [2]; TNF-α (100 mU) 12 h, with or without 48 h preincubation with 0.1% LE): 6.5 ± 0.2 μmol/106 cells
